Measurements as given in patent US20190031717A1, “MULTI-FUNCTIONAL FUSION POLYPEPTIDE, PREPARATION METHOD THEREOF, AND APPLICATION OF SAME” (NANJING ANJI BIOLOGICAL TECHNOLOGY CO., LTD, priority 2016, published 2019).

Experiments:
[1] = test system: Non-small cell lung cancer; assay: MTT assay, lung cancer tumor cells; assay type: cell-based, human; parameters: concentration or dose not given beside the values; settings: 48 h, mean ± SD
Protocol: (§1) The inhibition of the growth of human lung cancer tumor cells by the polypeptide of the present invention was examined by MTT assay. The lung cancer tumor cells were cultured in a 37° C., 5% (volume fraction) CO2 incubator to a density of 90% or more, and collected by trypsinization. The cells were resuspended in the culture medium and counted under a microscope to adjust the cell concentration to 2.0×10^4 cells/mL, the cell suspension was inoculated into a 96-well plate at 100 μL per well, and cultured overnight at 37° C. in a 5% (volume fraction) CO2 incubator. After the cells were completely adhered, the polypeptide of the present invention was added as a drug-administered group, and a culture solution containing no drug was used as a blank control group, and the culture solution was diluted to each predetermined concentration. Each dilution was separately added to a 96-well plate at 100 μL per well and incubated for 48 h at 37° C. in a 5% (volume fraction) CO2 incubator. 20 μL of 5 mg/mL MTT was added to each well of a 96-well plate, and incubation was continued for 4 hours. The medium was aspirated, and the cells were dissolved in 100 μL of DMSO per well. The absorbance was measured by a microplate reader at a detection wavelength of 570 nm and a reference wavelength of 630 nm, and the growth inhibition rate was calculated as follows: tumor growth inhibition rate (%)=(1−administered group absorbance value/unadministered group absorbance value)×100%, and the experiment was repeated 3 times independently. The results obtained by the test were expressed as mean±standard deviation. The results in Table 6 indicate that the polypeptides of the present invention have a good inhibitory effect on proliferation of a variety of human lung cancer tumors (FIG. 5).

Large cell lung cancer = assay: MTT assay, lung cancer tumor cells; assay type: cell-based, human; parameters: concentration or dose not given beside the values; settings: 48 h, mean ± SD
Protocol: as §1

Small Cell Lung Cancer = assay: MTT assay, lung cancer tumor cells; assay type: cell-based, human; parameters: concentration or dose not given beside the values; settings: 48 h, mean ± SD
Protocol: as §1

Adenosquamous carcinoma = assay: MTT assay, lung cancer tumor cells; assay type: cell-based, human; parameters: concentration or dose not given beside the values; settings: 48 h, mean ± SD
Protocol: as §1

Adenocarcinoma = assay: MTT assay, lung cancer tumor cells; assay type: cell-based, human; parameters: concentration or dose not given beside the values; settings: 48 h, mean ± SD
Protocol: as §1

Squamous cell carcinoma = assay: MTT assay, lung cancer tumor cells; assay type: cell-based, human; parameters: concentration or dose not given beside the values; settings: 48 h, mean ± SD
Protocol: as §1

Cervical cancer = assay: MTT assay, tumor cells; assay type: cell-based, human; parameters: concentration or dose not given beside the values; settings: 48 hours, mean ± SD
Protocol: (§2) A variety of human tumor cells were cultured in a 37° C., 5% (volume fraction) CO2 incubator to a density of 90% or more, collected by trypsinization, resuspended in a culture medium and counted under a microscope, and the cells were harvested. The concentration was adjusted to 2.0×10^4 cells/mL, the cell suspension was inoculated into a 96-well plate at 100 μL per well and cultured overnight at 37° C. in a 5% (volume fraction) CO2 incubator. After the cells were completely adhered, the polypeptides of the present invention were added as drug-administered groups, and a culture solution containing no drug was used as a blank control group, and the culture solution was diluted to each predetermined concentration. Each dilution was separately added to a 96-well plate at 100 μL per well and incubated for 48 hours at 37° C. in a 5% (volume fraction) CO2 incubator. 20 μL of 5 mg/mL MTT was added to each well of a 96-well plate and incubation was continued for 4 h. The medium was aspirated and dissolved in 100 μL of DMSO per well. The absorbance was measured with a microplate reader at a detection wavelength of 570 nm and a reference wavelength of 630 nm, and the growth inhibition rate was calculated as follows: tumor growth inhibition rate (%)=(1−absorbance value of the administered group/unadministered group absorbance value)×100%, and the experiment was repeated 3 times independently. The results obtained from the test were expressed as mean±standard deviation, and the tumor growth inhibition rate of the unadministered group was 0. The results in Table 7 indicate that the polypeptides of the present invention have a significant inhibitory effect on the growth of various tumors (FIG. 6).

Uterine cancer = assay: MTT assay, tumor cells; assay type: cell-based, human; parameters: concentration or dose not given beside the values; settings: 48 hours, mean ± SD
Protocol: as §2

Breast cancer = assay: MTT assay, tumor cells; assay type: cell-based, human; parameters: concentration or dose not given beside the values; settings: 48 hours, mean ± SD
Protocol: as §2

Brain tumor = assay: MTT assay, tumor cells; assay type: cell-based, human; parameters: concentration or dose not given beside the values; settings: 48 hours, mean ± SD
Protocol: as §2

Thyroid cancer = assay: MTT assay, tumor cells; assay type: cell-based, human; parameters: concentration or dose not given beside the values; settings: 48 hours, mean ± SD
Protocol: as §2

Head and neck cancer = assay: MTT assay, tumor cells; assay type: cell-based, human; parameters: concentration or dose not given beside the values; settings: 48 hours, mean ± SD
Protocol: as §2

Prostate cancer = assay: MTT assay, tumor cells; assay type: cell-based, human; parameters: concentration or dose not given beside the values; settings: 48 hours, mean ± SD
Protocol: as §2

Esophageal cancer = assay: MTT assay, tumor cells; assay type: cell-based, human; parameters: concentration or dose not given beside the values; settings: 48 hours, mean ± SD
Protocol: as §2

Ovarian cancer = assay: MTT assay, tumor cells; assay type: cell-based, human; parameters: concentration or dose not given beside the values; settings: 48 hours, mean ± SD
Protocol: as §2

Hemangioma = assay: MTT assay, tumor cells; assay type: cell-based, human; parameters: concentration or dose not given beside the values; settings: 48 hours, mean ± SD
Protocol: as §2

Kidney cancer = assay: MTT assay, tumor cells; assay type: cell-based, human; parameters: concentration or dose not given beside the values; settings: 48 hours, mean ± SD
Protocol: as §2

Bladder Cancer = assay: MTT assay, tumor cells; assay type: cell-based, human; parameters: concentration or dose not given beside the values; settings: 48 hours, mean ± SD
Protocol: as §2

sarcoma = assay: MTT assay, tumor cells; assay type: cell-based, human; parameters: concentration or dose not given beside the values; settings: 48 hours, mean ± SD
Protocol: as §2

Liver cancer = assay: MTT assay, tumor cells; assay type: cell-based, human; parameters: concentration or dose not given beside the values; settings: 48 hours, mean ± SD
Protocol: as §2

Colorectal cancer = assay: MTT assay, tumor cells; assay type: cell-based, human; parameters: concentration or dose not given beside the values; settings: 48 hours, mean ± SD
Protocol: as §2

Melanoma = assay: MTT assay, tumor cells; assay type: cell-based, human; parameters: concentration or dose not given beside the values; settings: 48 hours, mean ± SD
Protocol: as §2

Pancreatic cancer = assay: MTT assay, tumor cells; assay type: cell-based, human; parameters: concentration or dose not given beside the values; settings: 48 hours, mean ± SD
Protocol: as §2

Gastric cancer = assay: MTT assay, tumor cells; assay type: cell-based, human; parameters: concentration or dose not given beside the values; settings: 48 hours, mean ± SD
Protocol: as §2

Chlamydia pneumoniae = assay: Mouse pneumonia model, chlamydia; assay type: in vivo, BALB/C mice; parameters: concentration or dose not given beside the values; settings: mean ± SD
Protocol: (§3) The mouse pneumonia model was successfully established by the nose-drop method. To build the mouse pneumonia model, BALB/C mice with a body mass of 16-22 g were selected and anesthetized pneumonia chain was prepared after anesthesia with ether on day 0, day 1, and day 2. Staphylococcal fluid, adenovirus concentrate, Mycoplasma pneumoniae, Chlamydia pneumoniae, protozoa, and pneumonia fungi were slowly dripped into the nasal cavity of the mice, so that they enter the tracheobronchial. During the operation process, care was exercised to prevent bacterial fluid from flowing into the esophagus, which leads to inactivation the bacterial fluid. After successful model establishment, the polypeptides of the present invention were administered, and the results were shown in Table 5. […] The results were expressed in average value±standard deviation.

Mycoplasma pneumoniae = assay: Mouse pneumonia model, mycoplasma; assay type: in vivo, BALB/C mice; parameters: concentration or dose not given beside the values; settings: mean ± SD
Protocol: as §3

Staphylococcal fluid = assay: Mouse pneumonia model, bacterial; assay type: in vivo, BALB/C mice; parameters: concentration or dose not given beside the values; settings: mean ± SD
Protocol: as §3

adenovirus concentrate = assay: Mouse pneumonia model, viral; assay type: in vivo, BALB/C mice; settings: mean ± SD
Protocol: as §3

[2] = test system: Pneumonia caused by lung infection; assay: Mouse pneumonia model, pneumonia caused by lung infection; assay type: in vivo, BALB/C mice; parameters: concentration or dose not given beside the values; settings: mean ± SD
Protocol: as §3

protozoa = assay: Mouse pneumonia model, protozoal; assay type: in vivo, BALB/C mice; parameters: concentration or dose not given beside the values; settings: mean ± SD
Protocol: as §3

pneumonia fungi = assay: Mouse pneumonia model, fungal; assay type: in vivo, BALB/C mice; parameters: concentration or dose not given beside the values; settings: mean ± SD
Protocol: as §3

Compound: CC(=O)O[C@@]12CO[C@@H]1C[C@H](O)[C@@]1(C)C(=O)[C@H](O)C3=C(C)[C@@H](OC(=O)[C@H](O)[C@@H](NC(=O)OC(C)(C)C)c4ccccc4)C[C@@](O)([C@@H](OC(=O)c4ccccc4)[C@H]21)C3(C)C [Docetaxel, reference compound]
- tumor growth inhibition rate, MTT Assay [1]: 55.50 ± 19.83%
- tumor growth inhibition rate, MTT Assay (Large cell lung cancer): 52.69 ± 16.12%
- tumor growth inhibition rate, MTT Assay (Small Cell Lung Cancer): 42.16 ± 14.54%
- tumor growth inhibition rate, MTT Assay (Adenosquamous carcinoma): 35.87 ± 13.84%
- tumor growth inhibition rate, MTT Assay (Adenocarcinoma): 52.54 ± 15.12%
- tumor growth inhibition rate, MTT Assay (Squamous cell carcinoma): 39.78 ± 10.73%
- tumor growth inhibition rate, MTT Assay (Cervical cancer): 50.54 ± 21.82%
- tumor growth inhibition rate, MTT Assay (Uterine cancer): 52.33 ± 19.09%
- tumor growth inhibition rate, MTT Assay (Breast cancer): 61.44 ± 18.58%
- tumor growth inhibition rate, MTT Assay (Brain tumor): 45.90 ± 13.88%
- tumor growth inhibition rate, MTT Assay (Thyroid cancer): 42.03 ± 12.71%
- tumor growth inhibition rate, MTT Assay (Head and neck cancer): 32.59 ± 9.86%
- tumor growth inhibition rate, MTT Assay (Prostate cancer): 54.25 ± 19.68%
- tumor growth inhibition rate, MTT Assay (Esophageal cancer): 44.16 ± 13.36%
- tumor growth inhibition rate, MTT Assay (Ovarian cancer): 60.97 ± 18.44%
- tumor growth inhibition rate, MTT Assay (Hemangioma): 68.47 ± 20.71%
- tumor growth inhibition rate, MTT Assay (Kidney cancer): 40.23 ± 15.44%
- tumor growth inhibition rate, MTT Assay (Bladder Cancer): 34.82 ± 10.53%
- tumor growth inhibition rate, MTT Assay (sarcoma): 44.26 ± 13.39%
- tumor growth inhibition rate, MTT Assay (Liver cancer): 48.95 ± 14.80%
- tumor growth inhibition rate, MTT Assay (Colorectal cancer): 57.20 ± 17.30%
- tumor growth inhibition rate, MTT Assay (Melanoma): 38.17 ± 11.54%
- tumor growth inhibition rate, MTT Assay (Pancreatic cancer): 49.42 ± 18.21%
- tumor growth inhibition rate, MTT Assay (Gastric cancer): 43.57 ± 16.44%

Compound: Penicillin [reference compound]
- Inhibitory Effects on Various Pulmonary Infections (Chlamydia pneumoniae): 28.10 ± 14.99%
- Inhibitory Effects on Various Pulmonary Infections (Mycoplasma pneumoniae): 23.91 ± 14.27%
- Inhibitory Effects on Various Pulmonary Infections (Staphylococcal fluid): 26.52 ± 11.07%
- Inhibitory Effects on Various Pulmonary Infections (adenovirus concentrate): 35.02 ± 15.58%
- Inhibitory Effects on Various Pulmonary Infections [2]: 31.03 ± 18.46%
- Inhibitory Effects on Various Pulmonary Infections (protozoa): 37.00 ± 20.45%
- Inhibitory Effects on Various Pulmonary Infections (pneumonia fungi): 35.13 ± 16.62%
